Assay results reported in ChEMBL document CHEMBL4507296 (2021).

What was measured:
[1] = biological target: Ribosomal protein S6 kinase alpha-1 (Homo sapiens) (UniProt Q15418); conditions: Compound concentration 1000.0 nM
[2] = system: Mast/stem cell growth factor receptor Kit (Homo sapiens), P10721 [A829P]; conditions: Compound concentration 1000.0 nM
[3] = system: Phosphatidylinositol 4,5-bisphosphate 3-kinase catalytic subunit alpha isoform (Homo sapiens), P42336 [I800L]; conditions: Compound concentration 1000.0 nM
[4] = biological target: Serine/threonine-protein kinase PAK 6 (Homo sapiens) (UniProt Q9NQU5); conditions: Compound concentration 1000.0 nM
[5] = biological target: SNF-related serine/threonine-protein kinase (Homo sapiens) (UniProt Q9NRH2); conditions: Compound concentration 1000.0 nM
[6] = biological target: Serine/threonine-protein kinase 32A (Homo sapiens) (UniProt Q8WU08); conditions: Compound concentration 1000.0 nM
[7] = system: Receptor-type tyrosine-protein kinase FLT3 (Homo sapiens), P36888 [N841I]; conditions: Compound concentration 1000.0 nM
[8] = system: Mast/stem cell growth factor receptor Kit (Homo sapiens), P10721 [D816V]; conditions: Compound concentration 1000.0 nM
[9] = biological target: ALK tyrosine kinase receptor (Homo sapiens) (UniProt Q9UM73); conditions: Compound concentration 1000.0 nM
ALK tyrosine kinase receptor (Homo sapiens), sequence (Q9UM73 19-1620 limits assumed): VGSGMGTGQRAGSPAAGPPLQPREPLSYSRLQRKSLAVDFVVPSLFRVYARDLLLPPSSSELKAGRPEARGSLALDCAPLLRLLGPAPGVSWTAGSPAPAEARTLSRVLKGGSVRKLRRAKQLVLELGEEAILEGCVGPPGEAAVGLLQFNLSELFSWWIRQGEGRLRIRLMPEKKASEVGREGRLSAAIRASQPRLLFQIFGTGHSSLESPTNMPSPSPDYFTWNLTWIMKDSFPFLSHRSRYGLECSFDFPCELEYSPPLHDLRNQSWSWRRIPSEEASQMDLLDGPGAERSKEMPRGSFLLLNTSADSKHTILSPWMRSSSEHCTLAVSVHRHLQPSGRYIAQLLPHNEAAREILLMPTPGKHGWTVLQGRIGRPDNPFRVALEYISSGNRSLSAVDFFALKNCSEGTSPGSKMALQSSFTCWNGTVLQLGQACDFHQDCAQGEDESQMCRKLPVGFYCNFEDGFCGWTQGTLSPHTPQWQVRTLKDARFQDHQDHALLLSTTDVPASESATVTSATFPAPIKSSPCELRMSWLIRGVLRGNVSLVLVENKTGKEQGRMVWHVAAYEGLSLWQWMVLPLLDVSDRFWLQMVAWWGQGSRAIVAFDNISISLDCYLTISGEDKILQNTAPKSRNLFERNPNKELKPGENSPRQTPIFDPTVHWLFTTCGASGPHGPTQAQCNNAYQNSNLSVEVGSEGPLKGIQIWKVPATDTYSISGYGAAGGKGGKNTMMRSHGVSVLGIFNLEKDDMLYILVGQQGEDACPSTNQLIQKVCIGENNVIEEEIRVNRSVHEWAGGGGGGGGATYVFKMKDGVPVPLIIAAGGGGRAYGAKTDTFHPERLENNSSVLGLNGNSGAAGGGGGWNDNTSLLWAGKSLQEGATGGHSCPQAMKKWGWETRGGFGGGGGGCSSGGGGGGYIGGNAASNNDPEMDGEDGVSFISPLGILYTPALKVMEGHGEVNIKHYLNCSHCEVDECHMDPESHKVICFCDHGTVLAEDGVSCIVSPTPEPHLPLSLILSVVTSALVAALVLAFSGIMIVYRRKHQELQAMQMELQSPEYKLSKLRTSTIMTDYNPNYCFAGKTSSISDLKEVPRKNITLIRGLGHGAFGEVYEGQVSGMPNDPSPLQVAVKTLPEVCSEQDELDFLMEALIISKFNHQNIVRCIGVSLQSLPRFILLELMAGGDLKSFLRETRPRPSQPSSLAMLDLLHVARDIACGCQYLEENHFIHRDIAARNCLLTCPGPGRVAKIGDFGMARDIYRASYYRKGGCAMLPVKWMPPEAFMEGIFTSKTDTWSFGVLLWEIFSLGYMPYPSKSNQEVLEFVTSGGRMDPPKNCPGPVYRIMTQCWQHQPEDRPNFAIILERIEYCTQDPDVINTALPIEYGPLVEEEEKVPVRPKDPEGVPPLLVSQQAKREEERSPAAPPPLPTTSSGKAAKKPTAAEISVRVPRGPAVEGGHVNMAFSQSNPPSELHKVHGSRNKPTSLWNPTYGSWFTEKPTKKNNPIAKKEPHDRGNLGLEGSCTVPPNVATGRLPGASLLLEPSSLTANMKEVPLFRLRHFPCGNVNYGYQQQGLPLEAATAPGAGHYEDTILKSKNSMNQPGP

[10] = biological target: Serine/threonine-protein kinase BRSK1 (Homo sapiens) (UniProt Q8TDC3); conditions: Compound concentration 1000.0 nM
[11] = biological target: Beta-3 adrenergic receptor (Homo sapiens) (UniProt P13945); conditions: Compound concentration 10.0 uM
Beta-3 adrenergic receptor (Homo sapiens), sequence (P13945 whole entry, looked up): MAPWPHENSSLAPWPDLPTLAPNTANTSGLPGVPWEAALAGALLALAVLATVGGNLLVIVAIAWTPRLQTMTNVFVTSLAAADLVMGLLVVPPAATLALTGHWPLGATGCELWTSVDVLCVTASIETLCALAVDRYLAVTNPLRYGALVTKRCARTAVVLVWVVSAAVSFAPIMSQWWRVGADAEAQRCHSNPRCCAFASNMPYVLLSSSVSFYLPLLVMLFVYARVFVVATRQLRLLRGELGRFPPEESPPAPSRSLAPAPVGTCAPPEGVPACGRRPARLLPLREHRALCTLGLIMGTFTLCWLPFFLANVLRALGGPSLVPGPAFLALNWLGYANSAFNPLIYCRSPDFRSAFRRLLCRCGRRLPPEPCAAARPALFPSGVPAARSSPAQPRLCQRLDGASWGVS

[12] = biological target: Calcium/calmodulin-dependent protein kinase type 1D (Homo sapiens) (UniProt Q8IU85); conditions: Compound concentration 1000.0 nM
Calcium/calmodulin-dependent protein kinase type 1D (Homo sapiens), sequence (Q8IU85 whole entry, looked up): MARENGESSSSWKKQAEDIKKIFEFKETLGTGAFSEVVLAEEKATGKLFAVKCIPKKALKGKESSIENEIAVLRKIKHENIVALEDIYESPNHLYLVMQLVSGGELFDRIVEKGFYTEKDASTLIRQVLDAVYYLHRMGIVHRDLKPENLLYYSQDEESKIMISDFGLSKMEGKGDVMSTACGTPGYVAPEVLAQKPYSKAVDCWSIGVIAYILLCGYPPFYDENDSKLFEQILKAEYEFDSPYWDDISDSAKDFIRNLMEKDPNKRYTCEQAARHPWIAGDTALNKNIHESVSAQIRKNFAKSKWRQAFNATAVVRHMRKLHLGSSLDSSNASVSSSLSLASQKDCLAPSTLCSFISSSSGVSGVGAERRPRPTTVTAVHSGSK

[13] = biological target: MAP kinase-activated protein kinase 2 (Homo sapiens) (UniProt P49137); conditions: Compound concentration 1000.0 nM
MAP kinase-activated protein kinase 2 (Homo sapiens), sequence (P49137 whole entry, looked up): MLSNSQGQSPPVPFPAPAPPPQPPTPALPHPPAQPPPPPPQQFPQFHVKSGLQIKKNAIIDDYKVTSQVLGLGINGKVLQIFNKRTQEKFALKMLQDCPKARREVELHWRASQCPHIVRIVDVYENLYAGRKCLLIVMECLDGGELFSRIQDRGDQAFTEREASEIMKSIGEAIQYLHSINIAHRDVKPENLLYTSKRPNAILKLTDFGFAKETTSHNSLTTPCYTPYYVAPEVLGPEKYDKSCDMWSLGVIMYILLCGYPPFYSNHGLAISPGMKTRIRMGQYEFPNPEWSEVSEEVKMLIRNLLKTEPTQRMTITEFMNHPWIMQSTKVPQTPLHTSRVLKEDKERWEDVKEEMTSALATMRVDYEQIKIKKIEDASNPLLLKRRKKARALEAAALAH

[14] = biological target: Non-receptor tyrosine-protein kinase TYK2 (Homo sapiens) (UniProt P29597); conditions: Compound concentration 1000.0 nM
[15] = biological target: Mitogen-activated protein kinase 14 (Homo sapiens) (UniProt Q16539); conditions: Compound concentration 1000.0 nM
Mitogen-activated protein kinase 14 (Homo sapiens), sequence (Q16539 whole entry): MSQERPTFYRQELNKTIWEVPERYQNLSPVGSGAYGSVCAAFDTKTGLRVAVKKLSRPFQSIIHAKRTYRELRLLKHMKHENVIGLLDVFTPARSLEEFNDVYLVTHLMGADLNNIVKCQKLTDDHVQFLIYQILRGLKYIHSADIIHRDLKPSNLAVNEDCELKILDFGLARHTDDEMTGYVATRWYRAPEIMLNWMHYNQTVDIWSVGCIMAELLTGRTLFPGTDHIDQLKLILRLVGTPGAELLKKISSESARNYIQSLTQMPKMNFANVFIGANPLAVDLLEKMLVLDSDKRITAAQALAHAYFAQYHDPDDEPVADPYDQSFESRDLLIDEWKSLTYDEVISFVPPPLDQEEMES

[16] = biological target: Serine/threonine-protein kinase pim-2 (Homo sapiens) (UniProt Q9P1W9); conditions: Compound concentration 1000.0 nM
[17] = biological target: Serine/threonine-protein kinase Nek4 (Homo sapiens) (UniProt P51957); conditions: Compound concentration 1000.0 nM
[18] = system: Epidermal growth factor receptor (Homo sapiens), P00533 [L858R]; conditions: Compound concentration 1000.0 nM
[19] = biological target: Serine/threonine-protein kinase PknB (Mycobacterium tuberculosis) (UniProt P9WI81); conditions: Compound concentration 1000.0 nM
[20] = biological target: Serine/threonine-protein kinase WNK4 (Homo sapiens) (UniProt Q96J92); conditions: Compound concentration 1000.0 nM
Serine/threonine-protein kinase WNK4 (Homo sapiens), sequence (Q96J92 whole entry): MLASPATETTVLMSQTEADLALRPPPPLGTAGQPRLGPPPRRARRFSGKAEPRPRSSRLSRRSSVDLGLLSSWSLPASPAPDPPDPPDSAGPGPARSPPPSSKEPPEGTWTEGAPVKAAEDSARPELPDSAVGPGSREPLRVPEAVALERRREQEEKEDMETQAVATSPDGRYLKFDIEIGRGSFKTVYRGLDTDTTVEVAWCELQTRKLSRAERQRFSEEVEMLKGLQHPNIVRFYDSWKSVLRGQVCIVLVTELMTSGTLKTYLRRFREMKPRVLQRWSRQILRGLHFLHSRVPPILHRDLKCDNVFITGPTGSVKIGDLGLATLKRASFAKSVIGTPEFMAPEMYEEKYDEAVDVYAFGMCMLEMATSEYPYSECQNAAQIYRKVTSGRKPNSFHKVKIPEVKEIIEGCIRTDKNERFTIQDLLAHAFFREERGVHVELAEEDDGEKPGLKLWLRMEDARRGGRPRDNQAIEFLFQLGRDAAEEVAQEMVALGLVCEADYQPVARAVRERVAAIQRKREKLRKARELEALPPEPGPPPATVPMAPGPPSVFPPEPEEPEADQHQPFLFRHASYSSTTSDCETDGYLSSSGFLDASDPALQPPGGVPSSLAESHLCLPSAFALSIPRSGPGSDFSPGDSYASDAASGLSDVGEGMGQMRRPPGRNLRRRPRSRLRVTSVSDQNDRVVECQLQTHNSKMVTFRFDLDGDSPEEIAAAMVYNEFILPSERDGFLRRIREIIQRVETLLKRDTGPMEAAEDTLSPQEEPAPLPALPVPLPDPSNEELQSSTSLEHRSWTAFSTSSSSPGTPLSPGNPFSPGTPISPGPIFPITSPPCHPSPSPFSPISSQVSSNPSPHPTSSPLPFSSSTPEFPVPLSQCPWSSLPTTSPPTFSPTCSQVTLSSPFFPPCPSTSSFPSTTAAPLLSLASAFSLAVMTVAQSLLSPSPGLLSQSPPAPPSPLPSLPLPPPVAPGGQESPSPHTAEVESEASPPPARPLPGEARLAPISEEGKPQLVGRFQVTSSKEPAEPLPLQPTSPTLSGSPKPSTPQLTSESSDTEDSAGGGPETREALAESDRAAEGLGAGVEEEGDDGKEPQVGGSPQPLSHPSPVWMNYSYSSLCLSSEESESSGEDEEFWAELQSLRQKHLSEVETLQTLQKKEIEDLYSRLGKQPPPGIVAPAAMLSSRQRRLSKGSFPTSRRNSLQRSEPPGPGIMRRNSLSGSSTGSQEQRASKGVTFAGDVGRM

[21] = biological target: MAP kinase-interacting serine/threonine-protein kinase 2 (Homo sapiens) (UniProt Q9HBH9); conditions: Compound concentration 1000.0 nM
[22] = biological target: Phosphatidylinositol 4-phosphate 3-kinase C2 domain-containing subunit beta (Homo sapiens) (UniProt O00750); conditions: Compound concentration 1000.0 nM
[23] = biological target: Serine/threonine-protein kinase SBK1 (Homo sapiens) (UniProt Q52WX2); conditions: Compound concentration 1000.0 nM
[24] = biological target: Serine/threonine-protein kinase RIO2 (Homo sapiens) (UniProt Q9BVS4); conditions: Compound concentration 1000.0 nM
[25] = biological target: Mitogen-activated protein kinase kinase kinase 13 (Homo sapiens) (UniProt O43283); conditions: Compound concentration 1000.0 nM
[26] = biological target: Testis-specific serine/threonine-protein kinase 1 (Homo sapiens) (UniProt Q9BXA7); conditions: Compound concentration 1000.0 nM
Testis-specific serine/threonine-protein kinase 1 (Homo sapiens), sequence (Q9BXA7 whole entry): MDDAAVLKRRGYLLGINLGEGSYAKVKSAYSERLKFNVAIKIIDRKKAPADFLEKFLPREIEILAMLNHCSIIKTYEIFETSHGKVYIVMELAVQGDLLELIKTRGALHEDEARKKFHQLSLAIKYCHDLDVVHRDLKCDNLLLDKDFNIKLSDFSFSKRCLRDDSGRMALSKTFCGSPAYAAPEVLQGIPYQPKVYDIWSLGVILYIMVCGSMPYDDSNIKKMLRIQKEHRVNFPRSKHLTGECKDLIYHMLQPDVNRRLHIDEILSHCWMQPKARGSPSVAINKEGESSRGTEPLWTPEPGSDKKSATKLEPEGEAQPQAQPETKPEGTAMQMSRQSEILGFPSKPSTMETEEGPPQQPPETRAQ

[27] = system: Mast/stem cell growth factor receptor Kit (Homo sapiens), P10721 [L576P]; conditions: Compound concentration 1000.0 nM
[28] = system: Epidermal growth factor receptor (Homo sapiens), P00533 [L858R,T790M]; conditions: Compound concentration 1000.0 nM
[29] = biological target: Calcium-dependent protein kinase 1 (Plasmodium falciparum) (UniProt P62344); conditions: Compound concentration 1000.0 nM
[30] = biological target: Mitogen-activated protein kinase kinase kinase 4 (Homo sapiens) (UniProt Q9Y6R4); conditions: Compound concentration 1000.0 nM
[31] = biological target: Delta-type opioid receptor (Homo sapiens) (UniProt P41143); conditions: Compound concentration 10.0 uM
[32] = biological target: Serine/threonine-protein kinase Nek2 (Homo sapiens) (UniProt P51955); conditions: Compound concentration 1000.0 nM
[33] = biological target: Inhibitor of nuclear factor kappa-B kinase subunit alpha (Homo sapiens) (UniProt O15111); conditions: Compound concentration 1000.0 nM

With `C[C@H](c1ccc(F)cc1)N(Cc1cccc(C(=O)O)c1)C(=O)c1cnc2ccccc2c1` [PF-05105679] as the compound, how does the residual activity [1] read?
Its residual activity is 100%.

What about the residual activity [2] of the same compound?
Its residual activity is 92%.

What about the residual activity [3] of the same compound?
The residual activity was 61%.

And the residual activity [4]?
The residual activity was 100%.

What about the residual activity [5] of the same compound?
The residual activity was 96%.

What about the residual activity [6] of the same compound?
The residual activity was 100%.

What about the residual activity [7] of the same compound?
Its residual activity is 62%.

What about the residual activity [8] of the same compound?
The residual activity was 100%.

And the residual activity [9]?
The residual activity was 94%.

What about the residual activity [10] of the same compound?
Its residual activity is 100%.

What about the inhibition [11] of the same compound?
The inhibition was 2.81%.

And the residual activity [12]?
The residual activity was 100%.

And the residual activity [13]?
The residual activity was 85%.

What about the residual activity [14] of the same compound?
Its residual activity is 100%.

And the residual activity [15]?
Its residual activity is 0%.

And the residual activity [16]?
The residual activity was 100%.

What about the residual activity [17] of the same compound?
Its residual activity is 100%.

What about the residual activity [18] of the same compound?
The residual activity was 100%.

And the residual activity [19]?
The residual activity was 94%.

And the residual activity [20]?
Its residual activity is 91%.

What about the residual activity [21] of the same compound?
The residual activity was 74%.

What about the residual activity [22] of the same compound?
Its residual activity is 90%.

What about the residual activity [23] of the same compound?
Its residual activity is 92%.

And the residual activity [24]?
Its residual activity is 80%.

And the residual activity [25]?
Its residual activity is 75%.

And the residual activity [26]?
Its residual activity is 91%.

What about the residual activity [27] of the same compound?
Its residual activity is 94%.

And the residual activity [28]?
The residual activity was 96%.

What about the residual activity [29] of the same compound?
The residual activity was 100%.

And the residual activity [30]?
Its residual activity is 100%.

What about the inhibition [31] of the same compound?
Its inhibition is -1.72%.

And the residual activity [32]?
The residual activity was 94%.

And the residual activity [33]?
The residual activity was 93%.
